Results published in patent publication US12274703B2, “Compositions and methods of treatment for neurological disorders comprising a dementia” (Gliapharm SA, priority 2017, dated 2025).
Counter-ions that a name gives are not always drawn. Like-named read-outs stand apart in the source and are kept apart here.

Legend:
[1] = system: primary astrocytes; assay: High throughput screening for lactate secretion: acidification of extracellular medium (SNARF5); format: cell-based, mouse; parameters: key to Score / HTS Score (lactate) / HTS Score (SNARF5) / Score_SNARF: fraction of positive control activity (positive control = 100%); settings: for Emax at 10 µM: Mus musculus, Astrocyte, 1.5 h; for Score_SNARF: primary screening confirmation (SNARF5)
Protocol: (§1) Primary cultures of cerebrocortical astrocytes were obtained from 1-2-day-old OF1 mouse pups (Charles River Laboratories). Briefly, cortices were isolated and minced in small pieces under a dissecting microscope. The cells were incubated for 30 min at 37° C. in a solution containing 20 U/ml of papain enzyme (Worthington Biochemical), L-cysteine 1 mM (Sigma), and 10 kU/ml DNase I (Worthington Biochemical) for an enzymatic dissociation. Papain activity was stopped by the addition of fetal calf serum (FCS) to the solution, and a single-cell suspension was then obtained by mechanical dissociation, which consisted in cells trituration in a DMEM (D7777, Sigma-Aldrich) medium (supplemented with 44 mm NaHCO3, and 10 ml/L antibiotic/antimycotic solution) containing 10% FCS. The cells were seeded at an average density of 6×10^4 cells/cm^2 in poly-D-lysine-coated 96, 12 or 6-well culture plates, depending on their use, and incubated at 37° C. in a humidified atmosphere containing 5% CO2/95% air. Culture medium was renewed twice per week. Cells were stimulated and harvested between DIV14 and DIV17, when confluence and cell growth were optimal.
Secretion of lactate in a high-throughput screening (HTS) fashion was measured indirectly through the acidification of extracellular medium. To this end, primary astrocytes grown in 96-well plates for 17 days were stimulated with the compounds as listed herein.
After washing the cells twice with stimulation medium (DMEM (D5030, Sigma), 3 mM NaHCO3 and 5 mM Glucose) at 37° C., cells were stimulated with the compounds at a final concentration of 10 uM (1% DMSO final) in 50 ul per well of stimulation medium supplemented with 10 uM of the extracellular pH sensor SNARF-5F %-(AND-6)-CAR (Life Technologies Corporation). Each compound was tested in two different plates for duplicates.
After 90 min stimulation, fluorescence was read at exc. (excitation) 480 nm/emm. (emission) 580 nm and at exc 480 nm/emm. 630 nm. The ratio of fluorescence between 630 nm and 580 emission values, which represents extracellular pH, was calculated.
In each plate, 8 wells were used for negative controls (DMSO) and 8 wells were used for positive controls (CCCP 2 uM in DMSO). Z prime values were calculated for each of the plates tested and values <0 were discarded.
The average and SD of compounds' values tested in duplicates were calculated, and compound was noted as HIT when the difference between compound's average and negative control's average was greater than three times the sum of compound's SD and negative controls' SD. Only scores greater than 40% were considered as lead hits for the CDC54K library; for the remaining libraries, all hits were considered. Scores are calculated as the % of activity compared to the positive control in each plate (which is 100%).
Primary screening hits were cherry picked on new plates and confirmed for SNARF5 effect, after having discarded those compounds that are fluorescent (exc. 480 nm/emm. 580 nm or 630 nm) before stimulation. Extracellular medium was next analyzed for extracellular lactate quantification for secondary screening.
Identification of lactate-enhancing drugs with high throughput screening (HTS) experiments on astrocytes primary cultures using extracellular pH dye (SNARF5F 5-(and 6)-carboxylic acid) for 90 min. The procedure is described in Material and Methods (2. Cell culture, 2.1. HTS for lactate secretion and 2.2. Extracellular lactate quantification).
The procedure was performed as follows: • Primary screening: acidification of the extracellular medium • Primary screening confirmation: acidification of the extracellular medium, removal of compounds with fluorescent activity at exc. 480 nm/emm. 580 nm or 630 nm. • Secondary screening: dosage of extracellular lactate

[2] = system: astrocytes; assay: MTT viability assay; format: cell-based; settings: Mus musculus, Astrocyte, cellular toxicity, 0-200 uM
Protocol: as §1
For cell toxicity determination, astrocytes in 96-well plates were stimulated 24 h (37° C. 5% CO2/95% air) with a gradient ranging from 0.1 to 200 μM of tested compounds. After stimulation, 5 mg/ml thiazol blue tetrazolium bromide (MTT, Sigma-Aldrich) in warm D5030 complete medium was added to each well, and cells were incubated for 4 h at 37° C. (5% CO2). The medium was then removed by aspiration, and the reaction was stopped by the addition of 50 μl DMSO per well.
The amount of reduced MTT (formazan) solubilized in DMSO was then determined spectrophotometrically using absorbance at 570 nm (Safire 2; Tecan).
MTT cellular viability assay was performed on astrocytes exposed to molecules from the Prestwick library (Prestwick hits; concentrations ranging from 0 uM to 200 uM).
MTT cellular viability assay was performed on astrocytes exposed to CDC54K hits (concentrations ranging from 0 uM to 200 uM).

[3] = system: astrocytes; assay: Extracellular lactate quantification; format: cell-based, mouse; settings: for EC50: Mus musculus, Astrocyte; for Score_LACTATE: Appendix I, secondary screening, dosage of extracellular lactate
Protocol: as §1
Secretion of L-lactate was determined in the extracellular medium of 96-well plated astrocytes after 90 min stimulation (at 37° C., in 5% CO2/95% air conditions) with the drug of interest. The stimulation medium was composed of D5030 medium (completed with D-glucose 5 mM and 44 mM sodium bicarbonate) for 90 min in concentrations ranging from 0 to 100 μM.
Briefly, 200 μl of a Glycine (Sigma)-Semicarbazide (Acros) 0.2M pH 10 buffer containing 3 mM NAD (Roche) and LDH 14 U/ml (Roche) was added to each well of a 96-well plate containing 30 μl aliquots complemented with 20 μl fresh complete D5030 medium. Samples were incubated at 37° C. for 1 h. After samples cooled down at room temperature, the fluorescence intensity (340 nm excitation/450 nm emission) that represents the amount of NADH produced was measured, and lactate concentration values were determined from a standard curve of L-lactate.
Statistical analysis consisted in ANOVA followed by Fisher LSD post-hoc test for pair-wise comparisons.
Levels of lactate secreted by astrocytes were measured in the extracellular medium at 90 min after stimulation with hits (molecules) from the CDC54K library.

[4] = system: astrocytes; assay: Production of H2O2 (mitochondrial activity); format: cell-based; settings: Mus musculus, Astrocyte, 1.5 h; CDC54K hits; 0-200 uM, 90 min
Protocol: as §1
Hydrogene peroxide (H2O2) released in the supernatant is detected enzymatically with Amplex red (Zhou, Diwu et al. 1997). Oxidation of Amplex red is catalysed by the horseradish peroxidase in presence of H2O2 into highly fluorescent resorufin. Fluorescence measure is read at 545 nm extinction, 590 nm emission. The amount of H2O2 was expressed relatively to the proteins content extracted from the cells in culture. […]
Mitochondrial respiration in astrocytes was measured through production of H2O2 at 90 min after stimulation with CDC54K hits (ranging from 0 to 200 uM).

[5] = system: astrocytes; assay: Intracellular glycogen quantification; format: cell-based, mouse; settings: 10 μM, 3 h
[6] = Prestwick hits, 10 uM, 90 min, activity relative to positive control CCCP 2 uM, read-out: Score
[7] = Prestwick hits, 10 uM, 90 min, relative to positive control CCCP 2 uM, read-out: HTS Score (lactate)
[8] = 1.5 h, Prestwick hits, 0-100 μM, 90 min, read-out: Lactate EC50
[9] = Appendix I, primary screening, 10 uM, 90 min, relative to positive control, read-out: Score
[10] = CDC54K hits, 10 uM, 90 min, relative to positive control CCCP 2 uM, read-out: HTS Score (SNARF5)
[11] = 1.5 h, CDC54K hits, 0-100 uM, 90 min, read-out: Lactate EC50
[12] = Appendix II, lactate secretion, read-out: EC50
[13] = Appendix I, primary screening, 10 uM, 90 min, relative to positive control
[14] = CDC54K hits, 10 uM, 90 min, relative to positive control CCCP 2 uM

SMILES	Emax at 10 µM [1, 6]	Emax at 10 µM [1, 7]	IC50 ([2]; Prestwick hits, 24 h)	EC50 [3, 8]	other results
C[N+]1(C)CCC(=C(c2ccccc2)c2ccccc2)CC1 [Diphemanil methylsulfate]	48.4%	48.4%	13.9 µM	1.17 µM	–
COc1cccc(CNS(=O)(=O)c2ccc3c(c2)CCCN3C(C)=O)c1 [T5967389]	–	–	–	–	Emax at 10 µM [1, 9]: 79%; Emax at 10 µM [1, 10]: 79%; IC50 ([2]; CDC54K hits): > 200 µM; EC50 [3, 11]: 23.5 µM; EC50 [3, 12]: 9.67 µM; IC50 [4]: > 200 µM
CC(=O)c1cccc(NC(=O)C(C)Sc2ncnc3ccccc23)c1 (stereo not shown) [T0511-9200]	–	–	–	–	Emax at 10 µM [1, 9]: 84.4%; Emax at 10 µM [1, 10]: 84.4%; IC50 ([2]; CDC54K hits): > 200 µM; EC50 [3, 11]: 10.2 µM; IC50 [4]: > 200 µM; Glycogen (statistical significance of glycogen degradation) ([5]; CDC54K hits): ns
CC(Nc1ncnc2sccc12)c1ccccn1 (stereo not shown) [T5672380]	–	–	–	–	Emax at 10 µM [1, 9]: 76.5%; EC50 [3, 12]: 3.91 µM
C#C[C@]1(O)CC[C@H]2[C@@H]3[C@H](C)CC4=C(CCC(=O)C4)[C@H]3CC[C@@]21C [Tibolone]	22.7%	22.7%	60.7 µM	2.23 µM	–
COC1=C(OC)C(=O)C(CCCCCCCCCCO)=C(C)C1=O [Idebenone]	25.9%	25.9%	112 µM	0.602 µM	–
CC(C)[N+](C)(CCOC(=O)C1c2ccccc2Oc2ccccc21)C(C)C [Propantheline bromide]	49.1%	49.1%	12.8 µM	11.7 µM	–
CCc1ccc(S(=O)(=O)N2CCSC2c2ccc(OC)c(OC)c2)cc1 (stereo not shown) [T5463586]	–	–	–	–	Score_SNARF ([1]; Appendix I): 0.5553; Score [1, 13]: 0.7707; HTS Score (SNARF5) [1, 14]: 0.77; IC50 ([2]; CDC54K hits): > 200 µM; Score_LACTATE [3]: 0.3936; EC50 [3, 11]: 10 µM; IC50 [4]: > 200 µM
CSc1cccc(NS(=O)(=O)c2ccc3onc(C(=O)N4CCCC4)c3c2)c1 [L995-0125]	–	–	–	–	Score_SNARF ([1]; Appendix I): 0.8016; Score [1, 13]: 0.8545; HTS Score (SNARF5) [1, 14]: 0.854; IC50 ([2]; CDC54K hits): > 200 µM; Score_LACTATE [3]: 0.9122; EC50 [3, 11]: 2 µM; IC50 [4]: 173 µM; Glycogen (statistical significance of glycogen degradation) ([5]; CDC54K hits): ns
N=C(N)N1CCc2ccccc2C1 [Debrisoquin sulfate]	23.8%	23.8%	> 200 µM	2.73 µM	–
O=C(COc1ccc(Cl)cc1)N1CCN(Cc2ccc3c(c2)OCO3)CC1 [Fipexide hydrochloride]	16.6%	16.6%	44 µM	5.16 µM	Glycogen (statistical significance of glycogen degradation) ([5]; Prestwick hits): ns
COc1ccc(Cc2nccc3cc(OC)c(OC)cc23)cc1OC [Papaverine hydrochloride]	35.5%	35.5%	> 200 µM	0.629 µM	–
CC[N+](CC)(CC(=O)Nc1c(C)cccc1C)Cc1ccccc1 [Denatonium benzoate]	11%	11%	178 µM	12.2 µM	–
[H]/N=C(\N/C(=N/[H])Nc1ccc(Cl)cc1)NC(C)C [Proguanil hydrochloride]	55.5%	55.5%	48.1 µM	0.854 µM	–
Cc1c(C)c2c(c(C)c1O)CCC(C)(COc1ccc(CC3SC(=O)NC3=O)cc1)O2 (stereo not shown) [Troglitazone]	27%	27%	106 µM	2.57 µM	–
O=c1n(CCCN2CCN(c3cccc(Cl)c3)CC2)nc2ccccn12 [Trazodone hydrochloride, trazodone, reference compound]	–	–	–	–	Score ([1]; Prestwick hits, 10 uM, 90 min, activity relative to positive control CCCP 2 uM): 0.08377; HTS Score (lactate) ([1]; Prestwick hits, 10 uM, 90 min, relative to positive control CCCP 2 uM): 0.084; Glycogen (statistical significance of glycogen degradation) ([5]; Prestwick hits): ns
